From US10870875B2, “Metalloprotein compositions” (Commonwealth Scientific and Industrial Research Organisation, priority 2014, dated 2020)
pKd: −log10 of the molar value.

Tests used:
[1] = biological target: T1, recombinant honeybee (Apis mellifera) silk protein AmelF3, SEQ ID NO: 39, containing bound haem b (film) (Apis mellifera, UniProt A0ACM8QI31); test: NO binding to reduced AmelF3-haem b film (UV/Vis); conditions: NO added as diethylamine NONOate to dithionite-reduced film, 50 mM phosphate pH 7; decrease in absorbance at 420 nm, sigmoidal fit modified from Hill equation; read-out: dissociation constant
T1 sequence (A0ACM8QI31 20-335): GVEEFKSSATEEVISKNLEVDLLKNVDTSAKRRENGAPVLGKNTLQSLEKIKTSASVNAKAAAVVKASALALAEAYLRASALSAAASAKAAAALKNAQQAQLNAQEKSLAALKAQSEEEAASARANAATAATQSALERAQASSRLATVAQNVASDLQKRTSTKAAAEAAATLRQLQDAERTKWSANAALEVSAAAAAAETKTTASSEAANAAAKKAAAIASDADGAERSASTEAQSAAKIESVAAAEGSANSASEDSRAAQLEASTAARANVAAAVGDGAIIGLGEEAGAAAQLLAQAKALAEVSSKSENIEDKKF
From the text: A. UV/Vis spectra obtained when silk protein films generated from recombinant honeybee silk protein AmelF3 were bound to increasing NO concentrations. B. Ratio change of absorbance change at 420 nm as NO concentrations are increased. Either the decrease in absorbance at 420 nm or increase in absorbance at 390 nm can be used. The decrease in absorbance at 420 nm can be converted into the fraction of nitric oxide binding site occupied by NO and plotted against NO concentration, and fitted to a sigmoidal curve modified from the Hill equation with a dissociation constant of 6.7 μM and a limit of detection of ˜1 μM.
AmelF3-haem b film was used as the porphyrin-silk film. Freshly prepared sodium dithionite (100 mM) in 50 mM phosphate buffer (pH 7) were used as the reducing agent. 10-100 μL was added to a 50 mM phosphate buffer (pH 7) covering the porphyrin-silk film. Sodium persulfate was used at the oxidising agent a similar manner to sodium dithionite. […] Changes in the UV/Vis spectrum were monitored to determine redox states and measure NO binding (FIGS. 10A and 10B). […]
Exposure to increasing NO concentration caused the Soret peak to shift from 421 nm to 395 nm. From 0-7 μM, there was a linear relationship between the decrease in absorbance at 421 nm and the concentration of NO, with a limit of detection for NO of 1 μM.

[2] = biological target: T2, recombinant honeybee (Apis mellifera) silk protein AmelF3, unmodified, SEQ ID NO: 39 (Apis mellifera, UniProt A0ACM8QI31); test: Binding of macrocycles/chelates to AmelF3 sponges or films (colour retained after washing, UV/Vis); conditions: qualitative; for Binding properties: sponge, macrocycle in excess, retention of colour after washing; for binding to silk protein (in words): sponge or film
T2 construct: sponges and films
Experimental: Full length, recombinant honeybee silk proteins (AmelF3) without affinity purification tags, were produced by fermentation in Escherichia coli as described in Weisman et al. (2010). Full length, recombinant Weaver Ant/Green Ant (Oecophylla smaragdina) silk proteins (GA1, GA2, GA3, GA4) without affinity purification tags, were produced by fermentation in Escherichia coli following the same procedures as outlined in Weisman et al. (2010).
(§1) AmelF3 sponges were prepared as described in example 1. […] The colour change observed with honeybee silk indicates a change in the coordination of the iron metal centre within the haem group, producing a material with a similar coordination to red haemoglobin. The colour was not removed by extensive washing with 70% methanol, 0.1M HCl or 0.1M NaCl.
An embodiment of the composition of the present invention was formed by co-drying a solution of AmelF3 and haem b. Briefly, 2 mg haem b and 20 mg AmelF3 silk sponge was dissolved in 1 mL of HFIP overnight at room temperature. The solution was aliquoted into either a cuvette or 24-well plate and dried at room temperature. The dried film was soaked overnight in 70% methanol to make the film insoluble in water.
Alternatively, haem b was ‘leached’ into a pre-formed film. The AmelF3 material was formed as described in example 1. The silk material was soaked in a solution of haem b (0.5 mg/mL; haem b in excess) in 70% methanol solution for between 1 and 48 hours followed by washing with 70% methanol to remove any unbound haem b and dried at room temperature.
AmelF3 films with different ratios of haem b to AmelF3 were prepared by co-drying haem and AmelF3 HFIP solutions. At low haem loadings (haem:protein molar ratios of 1:1 and 1:2), a sharp Soret peak at 404 nm was observed, indicative of all the haem being coordinated (FIG. 3). As the concentration of haem b relative to the protein was increased, the Soret peak broadened and shifted to lower wavelengths indicating an increase in the amount of uncoordinated haem (FIG. 3).
(§2) The ability of sponges generated from recombinant AmelF3 to bind a range of macrocyles was tested by adding a solution of the macrocmacrocycle containing an excess of the macrocycle to be tested to the AmelF3 sponge and observing the colour of the sponge and whether the sponge retained colour after washing. The strength of macrocycle binding was assessed qualitatively by assessing the intensity of the colour retained by the sponge after washing. Strong binding to the sponge refers to the finding that the macrocycle cannot be washed out with aqueous methanol, organic solvents, 0.1 M HCl or 0.1 M NaOH.
(§3) Films generated from recombinant honeybee silk protein AmelF3 containing dicyanocobyrinic acid heptamethyl ester were prepared as described in example 3. UV/Vis spectrum were recorded for a film generated from recombinant AmelF3 containing dicyanocobyrinic acid heptamethyl ester and a solution of dicyanocobyrinic acid heptamethyl ester without AmelF3 (FIG. 8).

[3] = system: materials generated from recombinant honeybee silk proteins (AmelF3 sponge); test: Binding of macrocycles to recombinant AmelF3 honeybee silk sponges, judged by colour retained after washing; set-up: species or system Apis mellifera; conditions: excess macrocycle in solution, intensity of colour retained after washing
Experimental: as §1, §2

[4] = biological target: T3, Apis mellifera AmelF3 (SEQ ID NO: 39) variant Tyr76Ala (Apis mellifera, UniProt A0ACM8QI31, Y95A); test: Binding of chelates to AmelF3 Tyr76Ala sponges or films; conditions: sponge washed with aqueous methanol, qualitative
T3 construct: sponge or film
Experimental: Site directed mutagenesis of honeybee silk proteins was carried using methods known to the person skilled in the art. For example, to generate AmelF3 Tyr76Ala, the forward primer 5′-[…]-3′ (SEQ ID NO: 80) with the corresponding reverse primer was employed and site directed mutagenesis was carried out using Pfx 50 DNA polymerase from Invitrogen following the Pfx50 manufactures instructions. All AmelF3 mutants were expressed and purified using a similar procedure as the unmodified AmelF3 silk protein. To generate AmelF3 Tyr76His, the forward primer 5′-[…]-3′ (SEQ ID NO: 81) with the corresponding reverse primer was employed. To generate AmelF3 Ala97His, the forward primer 5′-[…]-3′ (SEQ ID NO: 82) was used.
To test whether Tyr76 was indeed the coordinating ligand, the present inventors replaced Tyr76 with an alanine using site directed mutagenesis of the AmelF3 silk gene.

AmelF3 in film = test: Binding of dicyanocobyrinic acid heptamethyl ester to AmelF3 film (UV/Vis); set-up: species or system Apis mellifera; conditions: peak shift from 370 to 360
Experimental: as §3

T3 sequence (A0ACM8QI31 entry or part of it Y95A): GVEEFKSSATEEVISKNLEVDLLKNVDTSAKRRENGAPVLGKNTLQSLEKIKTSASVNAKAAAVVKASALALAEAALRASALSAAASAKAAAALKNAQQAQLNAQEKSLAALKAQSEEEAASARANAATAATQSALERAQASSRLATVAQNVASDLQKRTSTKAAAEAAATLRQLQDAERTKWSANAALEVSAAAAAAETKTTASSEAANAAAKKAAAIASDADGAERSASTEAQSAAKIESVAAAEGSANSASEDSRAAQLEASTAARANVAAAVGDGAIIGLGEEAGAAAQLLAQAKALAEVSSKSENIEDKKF

SMILES | Binding properties [2] | binding to silk protein (in words) [2] | other results
[N]=O [NO, nitric oxide] |  |  | pKd [1]: 5.17
CCC1=C(C)c2cc3[nH]c(cc4[nH]c(cc5nc(cc1n2)C(C)=C5CC)c(C)c4CC)c(C)c3CC [drawing 2] | Does not bind |  | 
C=Cc1c(C)c2cc3[nH]c(cc4nc(cc5nc(cc1[nH]2)C(C)=C5CCC(=O)OC)C(CCC(=O)OC)=C4C)c(C)c3C=C | Does not bind |  | 
C1=CC2C3=NC(=N\C4N/C(=N\C5=NC(=N\C6N/C(=N\3)c3ccccc36)/C3C=CC=CC53)c3ccccc34)/C2C=C1 (stereo not drawn) [drawing 5] |  |  | Binding properties [3]: Does not bind
C=CC1=C(C)c2cc3[nH]c(cc4nc(cc5[nH]c(cc1n2)c(C)c5CCC(=O)O)C(CCC(=O)O)=C4C)c(C)c3C=C [drawing 1] | Strongly binds to silk |  | Binding properties [3]: Strongly binds to silk
COC(=O)CC[C@@H]1C2=NC(=C\C3=NC(=C(/C)C4=N[C@@](C)([C@@H]5[N-]/C(=C\2C)[C@](C)(CCC(=O)OC)[C@H]5CC(=O)OC)[C@@](C)(CC(=O)OC)[C@@H]4CCC(=O)OC)/[C@@](C)(CC(=O)OC)[C@@H]3CCC(=O)OC)/C1(C)C.[C-]#N.[C-]#N.[Co+3] [Dicyanocobyrinic acid heptamethyl ester, dicyanocobyrinic acid heptamethyl ester] |  | strongly blind to AmelF3 | binding to silk protein (in words) [4]: did not bind
CCC1=C(C)c2cc3[nH]c(cc4[nH]c(cc5nc(cc1n2)C(C)=C5CC)c(C)c4CC)c(C)c3CC [etioporphryin I] |  | no binding is obtained | 
COC(=O)CC[C@@H]1C2=NC(=C\C3=NC(=C(/C)C4=N[C@@](C)([C@@H]5[N-]/C(=C\2C)[C@](C)(CCC(=O)OC)[C@H]5CC(=O)OC)[C@@](C)(CC(=O)OC)[C@@H]4CCC(=O)OC)/[C@@](C)(CC(=O)OC)[C@@H]3CCC(=O)OC)/C1(C)C.[C-]#N.[C-]#N.[Co+3] [Dicyanocobyrinic acid heptamethyl ester] |  |  | binding to AmelF3 in film (AmelF3 in film): strongly blind
O=S(=O)(O)c1ccc2c(c1)-c1nc-2nc2[nH]c(nc3nc(nc4[nH]c(n1)c1ccc(S(=O)(=O)O)cc41)-c1ccc(S(=O)(=O)O)cc1-3)c1ccc(S(=O)(=O)O)cc21 [phthalocyanine tetrasulfonic acid] | Strongly binds |  | 
C1=CC2C3=NC(=N\C4N/C(=N\C5=NC(=N\C6N/C(=N\3)c3ccccc36)/C3C=CC=CC53)c3ccccc34)/C2C=C1 (stereo not drawn) [drawing 5, Phthalocyanine] |  | no binding is obtained | 
O=S(=O)(O)c1ccc2c(c1)-c1nc-2nc2[nH]c(nc3nc(nc4[nH]c(n1)c1ccc(S(=O)(=O)O)cc41)-c1ccc(S(=O)(=O)O)cc1-3)c1ccc(S(=O)(=O)O)cc21.[Zn+2] [Zn phthalocyanine tetrasulfonic acid, zinc phthalocyanine tetrasulfonic acid] |  | can bind | 
COC(=O)CCC1=C(C)c2cc3[nH]c(cc4nc(cc5[nH]c(cc1n2)c(CCC(=O)OC)c5C)C(S(=O)(=O)O)=C4C)c(S(=O)(=O)O)c3C [drawing 4] | Weak binding |  | Binding properties [3]: Weak binding
